Laboratory results published in patent publication US4400517A, “Phosphoric esters derived from 1,2,4-triazole having an insecticidal, nematocidal and acaricidal action, and their preparation” (priority 1976, dated 1983).
Read-outs that look alike come from different tables or passages of the source.

Tests used:
[1] = system: Pieris brassicae; test: Biological activity on Pieris brassicae (Lepidoptera); assay type: in vivo; details: 48 h
Description: (2) Biological activity on Pieris brassicae (Lepidotera)
Cut-off cauliflower leaves were sprinkled with an aqueous dispersion of the products under examination (see TABLE 5).
After drying, the leaves were infested with 5-day old larvae. The percentage of mortality of the larvae (untreated leaves=0) was determined after 48 hours from treatment.

[2] = system: Tetranychus urticae; test: Biological activity on adults of Tetranychus urticae (Acari); assay type: in vivo; details: 24 h
Description: (5) Biological activity on adults of Tetranychus urticae (Acari)
Discs of bean leaves were infested with adult acari and then sprinkled with an aqueous dispersion of the products under examination (see Tables 4 and 5).
The mortality percentage was determined after 24 hours from treatment (untreated leaf discs, mortality=0).

[3] = system: Culex pipiens; test: Biological activity on Culex pipiens larvae (Diptera); assay type: in vivo; details: 24 h
Description: (4) Biological activity on Culex pipiens (Diptera)
Into glasses containing an aqueous dispersion of the products under examination (see Tables 4 and 5) there were introduced mosquito larvae of third and fourth age.
The mortality percentage of the larvae (glasses containing pure water=0) was determined after 24 hours from treatment.

[4] = system: Leptinotarsa decemlineata; test: Biological activity on Leptinotarsa decemlineata (Coleoptera); assay type: in vivo; details: 48 h
Description: (3) Biological activity on Leptinotarsa decemlineata (Coleoptera)
Small potato plants grown in pots were infested with 4-day old larvae, and were then sprinkled with an aqueous dispersion of the products under examination (see Tables 4 and 5).
The mortality percentage (untreated small plants=0) was determined after 48 hours from treatment.

[5] = system: Locusta M.; test: Activity on Locusta M.; details: in vivo
[6] = system: Spodoptera littoralis; test: Biological activity on Spodoptera littoralis (Lepidoptera); assay type: in vivo; details: 48 h
Description: (7) Biological activity on Spodoptera littoralis (Lepidoptera)
Cut tobacco leaves were sprinkled with an aqueous dispersion of the products under examination (see Tables 4 and 5).
After drying, the leaves were infested with 5-day old larvae.
The percentage of mortality of the larvae was determined after 48 hours from treatment (untreated leaves, mortality=0).

[7] = system: Blatta orientalis; test: Biological activity on Blatta orientalis (Ortoptera); assay type: in vivo; details: Blatta orientalis, 48 h, read-out: Activity (mortality class), Blatta O.
Description: (10) Biological activity on Blatta orientalis (Ortoptera)
The bottom and walls of glass crystallizers were treated uniformly with an acetonic solution of the products under examination (see Tables 4 and 5). After evaporation of the solvent, into each crystallizer were introduced ten 80-100 days old neanides. The crystallizers were then closed with a metal net cover. After 24 hours from the start of the treatment, the insects were transferred to similar untreated crystallizers, and there were appropriately nourished in conventional manner.
The percentage of mortality (untreated insects=0) was determined after 48 hours from the start of the treatment.

[8] = system: Macrosiphum euphorbiae; test: Biological activity on Macrosiphum euphorbiae (Aphides); assay type: in vivo; details: potato plants, 24 h
Description: (1) Biological activity on Macrosiphum euphorbiae (Aphides)
Potato plants grown in pots were infested with adult females of aphides and, after several hours, were sprinked with an aqueous dispersion of the products under examination (see TABLE 5).
The percentage of mortality was assessed after 24 hours after the treatment (untreated plants=0).

[9] = system: Tetranychus urticae; test: Biological activity on Tetranychus urticae eggs (Acari); assay type: in vivo; details: bean leaf discs, 144 h
Description: (6) Biological activity on Tetranychus urticae (Acari)
Small discs of bean leaves were infested with Acari eggs and were then sprinkled with an aqueous dispersion of the products under examination (see Table 5).
The mortality percentage was determined after 6 days from treatment (untreated leaf discs, mortality=0).

[10] = Toxicity on albino rats by oral administration; details: rat, in vivo
[11] = read-out: Activity (mortality class), Pieris B.
[12] = read-out: Activity (mortality class), Tetranychus U. (adults)
[13] = read-out: Activity (mortality class), Culex P. (larvae)
[14] = read-out: Activity (mortality class), Leptinotarsa D.
[15] = read-out: Activity (mortality class), Spodoptera L.
[16] = 1%o, Table 5, read-out: Activity (mortality class), Pieris B.
[17] = 1%o, Table 5, read-out: Activity (mortality class), Tetranychus U. (adults)
[18] = 1%o, Table 5, read-out: Activity (mortality class), Leptinotarsa D.
[19] = 1%o, Table 5, read-out: Activity (mortality class), Spodoptera L.
[20] = 0.01%o, Table 5, read-out: Activity (mortality class), Pieris B.
[21] = 0.01%o, Table 5, read-out: Activity (mortality class), Tetranychus U. (adults)
[22] = 2 ppm, Table 5, read-out: Activity (mortality class), Culex P. (larvae)
[23] = 0.05%o, Table 5, read-out: Activity (mortality class), Leptinotarsa D.

| Structure (SMILES) | Activity (mortality class), Locusta M. [5] | mortality at 0.1 % [1, 16] [%] | Activity (mortality class), Macrosiphum E. [8] | mortality at 0.1 % [2, 17] [%] | mortality at 2 ppm [3, 13] [%] | mortality at 0.1 % [4, 18] [%] | mortality at 0.1 % [6, 19] [%] | Activity (mortality class), Tetranychus U. (eggs) [9] | mortality at 0.1 % [1, 11] [%] | mortality at 0.1 % [2, 12] [%] | mortality at 0.1 % [4, 14] [%] | mortality at 0.1 % [6, 15] [%] | mortality at 0.001 % [1, 20] [%] | mortality at 0.001 % [2, 21] [%] | mortality at 2 ppm [3, 22] [%] | mortality at 0.005 % [4, 23] [%] | mortality at 1 g/m2 ([7]; 1 g/m^2, Table 5) [%] | further results |
| --- | --- | --- | --- | --- | --- | --- | --- | --- | --- | --- | --- | --- | --- | --- | --- | --- | --- | --- |
| CC=Cc1nc(OP(=S)(OCC)OCC)n(C)n1 [M 8119] | ++ (100% of mortality) | – | – | – | – | – | – | – | – | – | – | – | – | – | – | – | – | mortality at 0.001 % [1, 11]: 10 to 69%; mortality at 0.001 % [2, 12]: 70 to 99%; mortality at 0.02 ppm [3, 13]: 0 to 9%; mortality at 0.005 % [4, 14]: 10 to 69%; mortality at 0.005 % [6, 15]: 10 to 69%; mortality at 0.01 g/m2 [7]: 100% |
| CCOP(=S)(OCC)Oc1nc(C(C)OC)nn1-c1ccccc1 (stereo not shown) [M 8167] | – | 100 | + (70-99% of mort.) | 100 | 100 | 100 | 100 | ++ (100% of mortality) | – | – | – | – | – | – | – | – | – | – |
| CCOP(=S)(OCC)Oc1nc(C(=O)CSC)nn1-c1ccccc1 [M 8169] | – | – | ± (10-69% of mort.) | – | 100 | – | – | ++ (100% of mortality) | 100 | 100 | 100 | 10 to 69 | – | – | – | – | – | – |
| CCOP(=S)(OCC)Oc1nc(C(C)SC)nn1-c1ccccc1 (stereo not shown) [M 8170] | ++ (100% of mortality) | – | + (70-99% of mort.) | – | 100 | – | – | ++ (100% of mortality) | 100 | 100 | 100 | 70 to 99 | – | – | – | – | – | – |
| CCCOP(=S)(OCCC)Oc1nc(C=C(Cl)Cl)nn1C [M 8448] | ± (10-69% of mort.) | 100 | ++ (100% of mortality) | 100 | – | 100 | 100 | ++ (100% of mortality) | – | – | – | – | 10 to 69 | 100 | 100 | 100 | 100 | – |
| CCCCn1nc(C=C(Cl)Cl)nc1OP(=S)(OCCC)OCCC [M 8475] | ± (10-69% of mort.) | – | ± (10-69% of mort.) | – | 100 | – | – | ++ (100% of mortality) | 100 | 10 to 69 | 100 | 10 to 69 | – | – | – | – | – | mortality at 1 g/m2 [7]: 0 to 9% |
| C=Cc1nc(OP(=S)(OCC)OCC)n(C)n1 [M 8476] | ++ (100% of mortality) | – | – | – | – | – | – | – | – | – | – | – | – | 100 | – | – | – | mortality at 0.02 ppm [3, 13]: 10 to 69%; mortality at 0.01 g/m2 ([7]; 0,01 g/m^2, Table 5): 100% |
| CC=C(Br)c1nc(OP(=S)(OCC)OCC)n(C)n1 [M 8549] | – | 100 | – | 100 | – | 100 | 100 | – | – | – | – | – | 10 to 69 | 10 to 69 | 100 | 100 | 100 | LD50 [10]: 1000 mg/kg |
| CCOP(=S)(OCC)Oc1nc(C(C)=C(Cl)Cl)nn1C [M 8550] | – | 100 | – | 100 | – | 100 | 100 | – | – | – | – | – | 100 | 10 to 69 | 100 | 100 | 100 | mortality at 0.02 ppm ([3]; 0.02 ppm, Table 5, read-out: Activity (mortality class), Culex P. (larvae)): 70 to 99%; LD50 [10]: 1700 mg/kg; mortality at 0.01 g/m2 ([7]; 0,01 g/m^2, Table 5): 10 to 69% |
